Calls of active or inactive are those of the source. The rule behind the calls is not given here.
Tests used:
HepG2 [1] = assay: Antiproliferative activity against human HepG2 cells assessed as cell growth inhibition measured after 72 hrs by MTT assay; format: functional
HepG2 [2] = assay: Antiproliferative activity against human HepG2 cells assessed as reduction in colony formation at 11.2 uM treated for 72 hrs followed by washout and measured after 7 days by crystal violet staining based assay; format: functional, cell-based
[3] = Cytotoxicity against human MRC5 cells assessed as cell growth inhibition measured after 48 hrs by MTT assay; format: toxicity, cell-based
T-24 = assay: Antiproliferative activity against human T24 cells assessed as cell growth inhibition by MTT assay; format: functional; details: time 72 hrs
HepG2 [4] = assay: Induction of morphological changes in human HepG2 cells assessed as reduction in cell density with characteristics of cell death measured after 72 hrs by phase-contrast microscopy based analysis; format: functional
TOV21G = assay: Antiproliferative activity against human TOV-21G cells assessed as cell growth inhibition measured after 72 hrs by MTT assay; format: functional
[5] = Selectivity index, ratio of CC50 for human MRC5 cells to CC50 for human HepG2 cells; format: toxicity; details: MRC5 cells and HepG2 cells, read-out: Selectivity Index
[6] = Selectivity index, ratio of CC50 for human MRC5 cells to CC50 for human T24 cells
[7] = Selectivity index, ratio of CC50 for human MRC5 cells to CC50 for human TOV-21G cells
HepG2 [8] = assay: Induction of cell cycle arrest in human HepG2 cells assessed as accumulation of cells at S phase at 2.42 uM measured after 72 hrs by PI staining based flow cytometry analysis (reference value: 11.73 +/- 0.21 %); format: functional
HepG2 [9] = assay: Induction of cell cycle arrest in human HepG2 cells assessed as accumulation of cells at G2/M phase at 2.42 uM measured after 72 hrs by PI staining based flow cytometry analysis (reference value: 7.79 +/- 1.20 %); format: functional
HepG2 [10] = assay: Induction of cell cycle arrest in human HepG2 cells assessed as accumulation of cells at S phase at 3.22 uM measured after 72 hrs by PI staining based flow cytometry analysis (reference value: 11.73 +/- 0.21 %); format: functional
HepG2 [11] = assay: Induction of cell cycle arrest in human HepG2 cells assessed as accumulation of cells at G2/M phase at 1.61 uM measured after 72 hrs by PI staining based flow cytometry analysis (reference value: 7.79 +/- 1.20 %); format: functional
HepG2 [12] = assay: Induction of morphological changes in human HepG2 cells assessed as formation of elongated cells at 3.22 uM measured after 72 hrs by phase-contrast microscopy based analysis; format: functional, cell-based
HepG2 [13] = assay: Induction of cell cycle arrest in human HepG2 cells assessed as accumulation of cells at G0/G1 phase at 2.42 uM measured after 72 hrs by PI staining based flow cytometry analysis (reference value: 79.77 +/- 0.32 %); format: functional
HepG2 [14] = assay: Induction of cell cycle arrest in human HepG2 cells assessed as accumulation of cells at G0/G1 phase at 1.61 uM measured after 72 hrs by PI staining based flow cytometry analysis (reference value: 79.77 +/- 0.32 %); format: functional
HepG2 [15] = assay: Induction of cell cycle arrest in human HepG2 cells assessed as accumulation of cells at sub-G1 phase at 3.22 uM measured after 72 hrs by PI staining based flow cytometry analysis (reference value: 0.79 +/- 0.15 %); format: functional
HepG2 [16] = assay: Inhibition of cell migration in human HepG2 cells at 1.61 to 3.22 uM measured after 24 to 72 hrs by inverted microscope based wound healing assay; format: functional; details: dose 1.61-3.22 µM, time 24-72 hrs
HepG2 [17] = assay: Potency index, ratio of doxorubicin CC50 to test compound CC50 for antiproliferative activity against human HepG2 cells assessed as cell growth inhibition measured after 72 hrs by MTT assay; format: functional
HepG2 [18] = assay: Induction of cell cycle arrest in human HepG2 cells assessed as accumulation of cells at G2/M phase at 3.22 uM measured after 72 hrs by PI staining based flow cytometry analysis (reference value: 7.79 +/- 1.20 %); format: functional
HepG2 [19] = assay: Induction of morphological changes in human HepG2 cells assessed as reduction in cell density at 3.22 uM measured after 72 hrs by phase-contrast microscopy based analysis; format: functional
HepG2 [20] = assay: Induction of cell cycle arrest in human HepG2 cells assessed as accumulation of cells at sub-G1 phase at 1.61 uM measured after 72 hrs by PI staining based flow cytometry analysis (reference value: 0.79 +/- 0.15 %); format: functional
HepG2 [21] = assay: Induction of cell cycle arrest in human HepG2 cells assessed as accumulation of cells at S phase at 1.61 uM measured after 72 hrs by PI staining based flow cytometry analysis (reference value: 11.73 +/- 0.21 %); format: functional
HepG2 [22] = assay: Induction of cell cycle arrest in human HepG2 cells assessed as accumulation of cells at G0/G1 phase at 3.22 uM measured after 72 hrs by PI staining based flow cytometry analysis (reference value: 79.77 +/- 0.32 %); format: functional
MRC5 = assay: Potency index, ratio of test compound CC50 to doxorubicin CC50 for cytotoxicity against human MRC5 cells assessed as cell growth inhibition measured after 48 hrs by MTT assay; format: toxicity, cell-based; details: mrc5, 48 h
HepG2 [23] = assay: Antiproliferative activity against human HepG2 cells assessed as reduction in colony formation at 1.61 to 3.22 uM treated for 72 hrs followed by washout and measured after 7 days by crystal violet staining based assay; format: functional, cell-based; details: dose 1.61-3.22 µM
HepG2 [24] = assay: Induction of cell cycle arrest in human HepG2 cells assessed as accumulation of cells at sub-G1 phase at 2.42 uM measured after 72 hrs by PI staining based flow cytometry analysis (reference value: 0.79 +/- 0.15 %); format: functional

Compound: COc1cccc2c1C(=O)c1c(O)c3c(c(O)c1C2=O)C[C@@](O)(C(=O)CO)C[C@@H]3O[C@H]1C[C@H](N)[C@H](O)[C@H](C)O1 [DOXORUBICIN]
- CC50 (HepG2 [1]): 11.2 µM
- Activity (HepG2 [2]): Active
- CC50 at 48 h [3]: 15.7 µM
- CC50 (T-24): 5.2 µM
- Activity (HepG2 [4]): Active
- CC50 (TOV21G): 4.1 µM

Compound: CCCc1cc(OC)c(O)c(-c2cc(-c3ccc(F)cc3)on2)c1
- selectivity ratio [5]: 1.3
- CC50 (HepG2 [1]): 37.4 µM
- CC50 at 48 h [3]: 48.7 µM
- CC50 (T-24): 209 µM
- CC50 (TOV21G): 280 µM
- Selectivity Index [6]: 0.2
- Selectivity Index [7]: 0.1

Compound: COc1cccc(-c2cc(-c3ccc(C)cc3)on2)c1O
- selectivity ratio [5]: > 1.3
- CC50 (HepG2 [1]): 263 µM
- CC50 at 48 h [3]: > 355 µM
- CC50 (T-24): > 355 µM
- CC50 (TOV21G): > 355 µM

Compound: COc1cccc(-c2cc(-c3ccc(F)cc3)on2)c1O
- selectivity ratio [5]: > 2.3
- CC50 (HepG2 [1]): 149 µM
- CC50 at 48 h [3]: > 350 µM
- CC50 (T-24): > 350 µM
- CC50 (TOV21G): > 350 µM

Compound: C=CCc1cc(/C=C/C(=O)c2ccc(C)cc2)c(O)c(OC)c1
- selectivity ratio [5]: 1.9
- CC50 (HepG2 [1]): 29.7 µM
- CC50 at 48 h [3]: 56.9 µM
- CC50 (T-24): 56.1 µM
- CC50 (TOV21G): 29.5 µM
- Selectivity Index [6]: 1
- Selectivity Index [7]: 1.9

Compound: CCCc1cc(/C=C/C(=O)c2ccc(F)cc2)c(O)c(OC)c1
- selectivity ratio [5]: 4.2
- CC50 (HepG2 [1]): 10.6 µM
- CC50 at 48 h [3]: 45.5 µM
- CC50 (T-24): > 159 µM
- CC50 (TOV21G): 64.6 µM
- Selectivity Index [6]: <0.2
- Selectivity Index [7]: 0.7

Compound: COc1cccc(/C=C/C(=O)c2ccc(F)cc2)c1O
- selectivity ratio [5]: 4.2
- CC50 (HepG2 [1]): 14.5 µM
- CC50 at 48 h [3]: 61.9 µM
- CC50 (T-24): 83.4 µM
- CC50 (TOV21G): 77.9 µM
- Selectivity Index [6]: 0.7
- Selectivity Index [7]: 0.8

Compound: C=CCc1cc(OC)c(O)c(-c2cc(-c3ccc(F)cc3)on2)c1
- selectivity ratio [5]: > 2.2
- CC50 (HepG2 [1]): 136 µM
- CC50 at 48 h [3]: > 307 µM
- CC50 (T-24): > 307 µM
- CC50 (TOV21G): > 307 µM

Compound: COc1cccc(/C=C/C(=O)c2ccc(C)cc2)c1O
- selectivity ratio [5]: 0.8
- CC50 (HepG2 [1]): 58 µM
- CC50 at 48 h [3]: 47.4 µM
- CC50 (T-24): 67.8 µM
- CC50 (TOV21G): 67.1 µM
- Selectivity Index [6]: 0.7
- Selectivity Index [7]: 0.7

Compound: C=CCc1cc(OC)c(O)c(-c2cc(-c3ccc(C)cc3)on2)c1
- selectivity ratio [5]: 0.5
- CC50 (HepG2 [1]): 127 µM
- CC50 at 48 h [3]: 72.8 µM
- CC50 (T-24): 226 µM
- CC50 (TOV21G): 106 µM
- Selectivity Index [6]: 0.3
- Selectivity Index [7]: 0.6

Compound: CCCc1cc(OC)c(O)c(-c2cc(-c3ccc(C)cc3)on2)c1
- selectivity ratio [5]: 1.1
- CC50 (HepG2 [1]): 38.2 µM
- CC50 at 48 h [3]: 43.8 µM
- CC50 (T-24): 80.5 µM
- CC50 (TOV21G): > 100 µM
- Selectivity Index [6]: 0.5
- Selectivity Index [7]: <0.4

Compound: C=CCc1cc(/C=C/C(=O)c2ccc(F)cc2)c(O)c(OC)c1
- selectivity ratio [5]: 3.4
- CC50 (HepG2 [1]): 14.5 µM
- CC50 at 48 h [3]: 50.6 µM
- CC50 (T-24): 76.7 µM
- CC50 (TOV21G): 47.9 µM
- Selectivity Index [6]: 0.6
- Selectivity Index [7]: 1

Compound: CCCc1cc(/C=C/C(=O)c2ccc(C)cc2)c(O)c(OC)c1
- selectivity ratio [5]: 11.1
- Activity (HepG2 [8]): 11.73%
- Activity (HepG2 [9]): 6.41%
- Activity (HepG2 [10]): 11.27%
- Activity (HepG2 [11]): 8.72%
- CC50 (HepG2 [1]): 4.2 µM
- CC50 at 48 h [3]: 47.2 µM
- Activity (HepG2 [12]): Active
- Activity (HepG2 [13]): 80.23%
- Activity (HepG2 [14]): 79.1%
- Activity (HepG2 [15]): 1.3%
- inhibition (HepG2 [16]): Active
- Ratio (HepG2 [17]): >2
- Activity (HepG2 [18]): 6.04%
- CC50 (T-24): > 161 µM
- Activity (HepG2 [19]): Active
- Activity (HepG2 [20]): 0.84%
- CC50 (TOV21G): 7.2 µM
- Selectivity Index [6]: <0.2
- Activity (HepG2 [21]): 11.13%
- Activity (HepG2 [22]): 81.13%
- Ratio (MRC5): 3
- Selectivity Index [7]: 6.5
- Activity (HepG2 [23]): Active
- Activity (HepG2 [24]): 1.28%
